# Species on record: Cavia porcellus
# Test: Inhibitory activity to reduce the spontaneous beating of isolated guinea-pig atria in a concentration-dependent manner at the dose of 3 uM
# Format: functional
SMILES,Max inhibition,inhibition at 3 µM
COc1cc2c(cc1OC)CC(=O)N(CCCNCCOc1ccccc1)C=C2,80%,53%
COc1ccc(CCNCCCN2C=Cc3cc(OC)c(OC)cc3CC2=O)cc1,69%,60%
C=CCN(CCCN1C=Cc2cc(OC)c(OC)cc2CC1=O)CCc1ccccc1,71%,53%
COc1cc2c(cc1OC)CC(=O)N(CCCNCCCCc1ccccc1)C=C2,84%,43%
COc1cc2c(cc1OC)CC(=O)N(CCCNCCc1ccccc1)C=C2,81%,60%
C=CCN(CCCN1C=Cc2cc(OC)c(OC)cc2CC1=O)CCc1ccc(Cl)cc1,60%,31%
C=CCN(CCCc1ccccc1)CCCN1C=Cc2cc(OC)c(OC)cc2CC1=O,100%,44%
COc1ccc(CCNCCCN2CCc3cc(OC)c(OC)cc3CC2=O)cc1OC,68%,40%
COc1ccc(CCNCCCN2C=Cc3cc(OC)c(OC)cc3CC2=O)cc1OC,77%,59%
COc1cc2c(cc1OC)CC(=O)N(CCCNCCc1ccc(Cl)cc1)C=C2,68%,60%
C=CCN(CCCN1C=Cc2cc(OC)c(OC)cc2CC1=O)CCc1ccc(OC)cc1,81%,80%
C=CCN(CCCCc1ccccc1)CCCN1C=Cc2cc(OC)c(OC)cc2CC1=O,91%,54%
COc1ccc(CCN(CCCN2C=Cc3cc(OC)c(OC)cc3CC2=O)Cc2ccccc2)cc1OC,59%,25%
C=CCN(CCCN1C=Cc2cc(OC)c(OC)cc2CC1=O)CCc1ccc(OC)c(OC)c1,69%,34%
C=CCN(CCCN1C=Cc2cc(OC)c(OC)cc2CC1=O)CCOc1ccccc1,100%,42%
COc1cc2c(cc1OC)CC(=O)N(CCCNCCCc1ccccc1)C=C2,60%,31%

# Reference: ChEMBL document CHEMBL1133938, “Parallel solid-phase synthesis of zatebradine analogues as potential I(f) channel blockers” (2001)
